Measurements as given in patent US12486302B2, “Somatostatin receptor antagonist compounds and methods of using the same” (CDRD VENTURES INC., priority 2016, dated 2025).
*1 amine or outer side, *2 acyl side, *3 side chain or, on linkers, in order; H or OH if unused. Where a SMILES comes first, the peptide text is derived from it. Bridges are numbered along the chain shown (N, C = ends). Triazole bridges read from a SMILES are 1,4-linked. [ ]: non-standard residue; d: D form. The star is where a group is joined. ξ: configuration not given here. dPhe(4-CONH2) = NC(=O)c1ccc(C[C@@H](N)C(=O)O)cc1; NMePhe(4-Cl) = CN[C@@H](Cc1ccc(Cl)cc1)C(=O)O; dPhe(4-CN) = N#Cc1ccc(C[C@@H](N)C(=O)O)cc1; Phe(4-Cl) = N[C@@H](Cc1ccc(Cl)cc1)C(=O)O; Dap(N3) = [N-]=[N+]=NC[C@H](N)C(=O)O; ξPhe(4-Cl) = NC(Cc1ccc(Cl)cc1)C(=O)O; NMeT = CN[C@H](C(=O)O)[C@@H](C)O; Lys(Me) = CNCCCC[C@H](N)C(=O)O; Thr(3ξ) = CC(O)[C@H](N)C(=O)O; Tle = CC(C)(C)[C@H](N)C(=O)O; ξY = NC(Cc1ccc(O)cc1)C(=O)O; dPra = C#CC[C@@H](N)C(=O)O; ξF = NC(Cc1ccccc1)C(=O)O; 2Furoyl = O=C(c1ccco1)*; Dap = NC[C@H](N)C(=O)O; CO = O=C([*:1])[*:2]; Bz = O=C(c1ccccc1)*

molecular target: somatostatin type 2 (SSTR2) receptors (Homo sapiens, UniProt P30874); assay: PathHunter β-Arrestin assay, antagonist mode, SSTR2; type: cell-based; details: agonist challenge at EC80
Protocol: The PathHunter® β-Arrestin assay monitors the activation of a GPCR in a homogenous, non-imaging assay format using a technology developed by DiscoveRx called Enzyme Fragment Complementation (EFC) with β-galactosidase (β-Gal) as the functional reporter. […] EA is fused to β-Arrestin and […] is fused to the GPCR of interest. When the GPCR is activated and β-Arrestin is recruited to the receptor, ED and EA complementation occurs, restoring β-Gal activity which is measured using chemiluminescent PathHunter® Detection Reagents. For antagonist determination, cells were pre-incubated with the compounds followed by agonist challenge at the EC80 concentration. Data was normalized to the maximal and minimal response observed in the presence of EC80 ligand and vehicle. Compound activity was analyzed using CBIS data analysis suite ChemInnovation, CA). Percentage inhibition was calculated using the following formula: % Inhibition=100%×(1−(mean signal of test sample-mean signal of vehicle control)/(mean signal of EC80 control-mean signal of vehicle control)). Percentage inhibition was calculated at 10 concentrations in steps on a Log 3 scale ranging from […] to 5e-5 μM. The results were plotted for IC50 calculation.

somatostatin type 2 (SSTR2) receptors, sequence (P30874 whole entry, the tested form may be a part): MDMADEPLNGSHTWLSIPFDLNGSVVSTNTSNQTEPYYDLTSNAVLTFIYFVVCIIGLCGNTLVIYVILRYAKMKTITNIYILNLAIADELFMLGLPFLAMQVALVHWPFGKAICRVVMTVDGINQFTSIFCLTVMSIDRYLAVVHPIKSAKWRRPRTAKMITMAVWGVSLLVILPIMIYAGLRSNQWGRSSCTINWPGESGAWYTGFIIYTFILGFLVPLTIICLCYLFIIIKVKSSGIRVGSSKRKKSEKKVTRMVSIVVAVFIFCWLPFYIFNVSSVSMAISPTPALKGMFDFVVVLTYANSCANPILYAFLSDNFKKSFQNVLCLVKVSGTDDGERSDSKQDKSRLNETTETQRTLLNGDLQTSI

SMILES	IC50 [nM]
C[C@@H](O)[C@@H]1NC(=O)[C@H](CCCCN)NC(=O)[C@@H](Cc2ccc(C(N)=O)cc2)NC(=O)[C@H](Cc2ccc(O)cc2)NC(=O)[C@H](NC(=O)[C@@H](N)Cc2ccc(Cl)cc2)CSSC[C@@H](C(=O)NC(Cc2ccccc2)C(N)=O)NC1=O (stereo partly drawn) [Compound 40, H-Cpa-cyclo[DCys- Tyr-D-(4- carbamoyl)Phe-Lys- Thr-Cys]-DPhe-NH2] (H-[Phe(4-Cl)][dC]Y[dPhe(4-CONH2)]KTC[ξF]-NH2; disulfide 2-7)	16.2
C[C@@H](O)[C@@H]1NC(=O)[C@H](CCCCN)NC(=O)[C@@H](Cc2ccc(C(N)=O)cc2)NC(=O)[C@H](Cc2ccccc2)NC(=O)[C@H](NC(=O)[C@@H](N)Cc2ccc(Cl)cc2)CSSC[C@@H](C(=O)NC(Cc2ccc(O)cc2)C(N)=O)NC1=O (stereo partly drawn) [Compound 35, H-Cpa-cyclo[DCys- Phe-D-(4- carbamoyl)Phe-Lys- Thr-Cys]-DTyr-NH2] (H-[Phe(4-Cl)][dC]F[dPhe(4-CONH2)]KTC[ξY]-NH2; disulfide 2-7)	35.9
CN[C@@H](Cc1ccc(Cl)cc1)C(=O)N[C@@H]1CSSC[C@@H](C(=O)N[C@H](Cc2ccc(O)cc2)C(N)=O)NC(=O)[C@H]([C@@H](C)O)NC(=O)[C@H](CCCCN)NC(=O)[C@@H](Cc2ccc(C(N)=O)cc2)NC(=O)[C@H](Cc2ccc(O)cc2)NC1=O [Compound 77, H—(N-Me)Cpa-cyclo[D-Cys-Tyr-D-Phe(4-carbamoyl)-Lys-Thr-Cys]-D-Tyr-NH2] (H-[NMePhe(4-Cl)][dC]Y[dPhe(4-CONH2)]KTC[dY]-NH2; disulfide 2-7)	2.25
CC(C)(C)[C@@H]1NC(=O)[C@H](CCCCN)NC(=O)[C@@H](Cc2ccc(C(N)=O)cc2)NC(=O)[C@H](Cc2ccc(O)cc2)NC(=O)[C@H](NC(=O)[C@@H](N)Cc2ccc(Cl)cc2)CSSC[C@@H](C(=O)NC(Cc2ccc(O)cc2)C(N)=O)NC1=O (stereo partly drawn) [Compound 34, H-Cpa-cyclo[DCys- Tyr-D-4- (carbamoyl)Phe-Lys- tBu-Gly-Cys]-DTyr- NH2] (H-[Phe(4-Cl)][dC]Y[dPhe(4-CONH2)]K[Tle]C[ξY]-NH2; disulfide 2-7)	43.4
CNCCCC[C@@H]1NC(=O)[C@@H](Cc2ccc(C(N)=O)cc2)NC(=O)[C@H](Cc2ccc(O)cc2)NC(=O)[C@H](NC(=O)[C@@H](N)Cc2ccc(Cl)cc2)CSC(=O)NC[C@@H](C(=O)N[C@H](Cc2ccc(O)cc2)C(N)=O)NC(=O)[C@H](C(C)O)NC1=O (stereo partly drawn) [Compound 63, H-Cpa-cyclo [DCys-Tyr-DPhe (4-CONH2)- Lys(Me)-Thr-Dap]- DTyr-NH2] (H-[Phe(4-Cl)][dC]Y[dPhe(4-CONH2)][Lys(Me)][Thr(3ξ)][Dap][dY]-NH2; linker 2-7 via CO)	> 1000
C[C@@H](O)[C@@H]1NC(=O)[C@H](CCCCN)NC(=O)[C@@H](Cc2ccc(C#N)cc2)NC(=O)[C@H](Cc2ccc(O)cc2)NC(=O)[C@H](NC(=O)[C@@H](N)Cc2ccc(Cl)cc2)CSSC[C@@H](C(=O)N[C@H](Cc2ccc(O)cc2)C(N)=O)NC1=O [Compound 59, H-Cpa-[DCys- Tyr-DPhe(4-CN)- Lys-Thr-Cys]- DTyr-NH2] (H-[Phe(4-Cl)][dC]Y[dPhe(4-CN)]KTC[dY]-NH2; disulfide 2-7)	39.1
CNCCCC[C@@H]1NC(=O)[C@@H](Cc2ccc(C(N)=O)cc2)NC(=O)[C@H](Cc2ccc(O)cc2)NC(=O)[C@H](NC(=O)[C@H](Cc2ccc(Cl)cc2)NC(=O)CNC(=O)c2ccccc2)CSSC[C@@H](C(=O)N[C@H](Cc2ccc(O)cc2)C(N)=O)NC(=O)[C@H]([C@@H](C)O)NC1=O [Compound 50, Ph(CO)NHCH2(CO)-Cpa-cyclo[D-Cys-Tyr-D-Phe(4-carbamoyl)-Lys(N^ε-Me)-Thr-Cys]-D-Tyr-NH2] (Bz-G[Phe(4-Cl)][dC]Y[dPhe(4-CONH2)][Lys(Me)]TC[dY]-NH2; disulfide 3-8)	1.11
C[C@@H](O)[C@@H]1NC(=O)[C@H](CCCCN)NC(=O)[C@@H](Cc2ccc(C(N)=O)cc2)NC(=O)[C@H](Cc2ccc(O)cc2)NC(=O)[C@H](NC(=O)[C@@H](N)Cc2ccc(Cl)cc2)Cc2cn(nn2)C[C@@H](C(=O)N[C@H](Cc2ccc(O)cc2)C(N)=O)NC1=O [Compound 66] (H-[Phe(4-Cl)][dPra]Y[dPhe(4-CONH2)]KT[Dap(N3)][dY]-NH2; triazole 2-7)	> 1000
C[C@@H](O)[C@H]1C(=O)N[C@H](C(=O)N[C@H](Cc2ccc(O)cc2)C(N)=O)CSSC[C@@H](NC(=O)[C@@H](N)Cc2ccc(Cl)cc2)C(=O)N[C@@H](Cc2ccc(O)cc2)C(=O)N[C@H](Cc2ccc(C(N)=O)cc2)C(=O)N[C@@H](CCCCN)C(=O)N1C [Compound 73, H-Cpa-[DCys-Tyr- DPhe(4-carbamoyl)- Lys-NMeThr- Cys]-DTyr-NH2] (H-[Phe(4-Cl)][dC]Y[dPhe(4-CONH2)]K[NMeT]C[dY]-NH2; disulfide 2-7)	547

Other lines, results leading:

IC50 [nM]	SMILES
25.6	C[C@@H](O)[C@@H]1NC(=O)[C@H](CCCCN)NC(=O)[C@@H](Cc2ccc(C(N)=O)cc2)NC(=O)[C@H](Cc2ccc(Cl)cc2)NC(=O)[C@H](NC(=O)[C@@H](N)Cc2ccc(Cl)cc2)CSSC[C@@H](C(=O)NC(Cc2ccc(Cl)cc2)C(N)=O)NC1=O (stereo partly drawn) [Compound 43, H-Cpa-cyclo[DCys- 4-Cl-Phe-D-(4- carbamoyl)Phe-Lys- Thr-Cys]-4-Cl-D- Phe-NH2] (H-[Phe(4-Cl)][dC][Phe(4-Cl)][dPhe(4-CONH2)]KTC[ξPhe(4-Cl)]-NH2; disulfide 2-7)
28.7	C[C@@H](O)[C@@H]1NC(=O)[C@H](CCCCN)NC(=O)[C@@H](Cc2ccc(C(N)=O)cc2)NC(=O)[C@H](Cc2ccc(Cl)cc2)NC(=O)[C@H](NC(=O)[C@@H](N)Cc2ccc(Cl)cc2)CSSC[C@@H](C(=O)NC(Cc2ccc(O)cc2)C(N)=O)NC1=O (stereo partly drawn) [Compound 36, H-Cpa-cyclo[DCys- Cpa-D-(4- carbamoyl)Phe-Lys- Thr-Cys]-DTyr-NH2] (H-[Phe(4-Cl)][dC][Phe(4-Cl)][dPhe(4-CONH2)]KTC[ξY]-NH2; disulfide 2-7)
> 1000	C[C@@H](O)[C@@H]1NC(=O)[C@H](CCCCN)NC(=O)[C@@H](Cc2ccc(C(N)=O)cc2)NC(=O)[C@H](Cc2ccc(O)cc2)NC(=O)[C@@H](NC(=O)[C@@H](N)Cc2ccc(Cl)cc2)CSSC[C@@H](C(=O)NC(Cc2ccc(O)cc2)C(N)=O)NC1=O (stereo in doubt) [Compound 39, H-Cpa-cyclo[Cys- Tyr-D-(4- carbamoyl)Phe- Lys-Thr-Cys]- DTyr-NH2]
1.51	CNCCCC[C@@H]1NC(=O)[C@@H](Cc2ccc(C(N)=O)cc2)NC(=O)[C@H](Cc2ccc(Cl)cc2)NC(=O)[C@H](NC(=O)[C@@H](N)Cc2ccc(Cl)cc2)CSSC[C@@H](C(=O)NC(Cc2ccc(Cl)cc2)C(N)=O)NC(=O)[C@H]([C@@H](C)O)NC1=O (stereo partly drawn) [Compound 47, H-Cpa-cyclo[D-Cys-Cpa-D-Phe(4-carbamoyl)-Lys(N^ε-Me)-Thr-Cys]-D-Cpa-NH2] (H-[Phe(4-Cl)][dC][Phe(4-Cl)][dPhe(4-CONH2)][Lys(Me)]TC[ξPhe(4-Cl)]-NH2; disulfide 2-7)
3.65	CNCCCC[C@@H]1NC(=O)[C@@H](Cc2ccc(C(N)=O)cc2)NC(=O)[C@H](Cc2ccc(O)cc2)NC(=O)[C@H](NC(=O)[C@H](Cc2ccc(Cl)cc2)NC(=O)c2ccco2)CSSC[C@@H](C(=O)N[C@H](Cc2ccc(O)cc2)C(N)=O)NC(=O)[C@H]([C@@H](C)O)NC1=O [Compound 57, (Furan-2-carboxy)-Cpa-cyclo[D-Cys-Tyr-D-Phe(4-carbamoyl)-Lys(N^ε-Me)-Thr-Cys]-D-Tyr-NH2] (2Furoyl-[Phe(4-Cl)][dC]Y[dPhe(4-CONH2)][Lys(Me)]TC[dY]-NH2; disulfide 2-7)
